Experimental data taken from patent US20110207807A1, “NEW USE FOR HOMOISOFLAVONE OR A SALT THEREOF” (Catholic University Industry Academy Cooperation Foundation, priority 2008, published 2011).

Tests used:
[1] = test system: IL-6; test: UV-induced IL-6 mRNA expression in HaCaT cells (real-time PCR); assay type: cell-based, human; conditions: 1 μg/mL, UV 100 J/m^2, compared to control group (FIG. 3)
Description: (§1) 1×10^6 HaCaT cells were inoculated on a 100-mm culture dish and cultured in DMEM containing 10% FBS for 24 hour. Then, the cells were starved by culturing for 24 hours in DMEM containing 1% FBS. Then, after treating with homoisoflavanone at 1 μg/mL for 1 hour, the cells were washed 3 times with PBS and irradiated with UV at 100 J/m^2 to induce increase of cytokines. Immediately after the UV radiation, the cells were washed again with PBS and further cultured for 2 or 5 hours in DMEM containing 1% FBS which had been treated with homoisoflavanone at the same concentration.
(§2) After extracting RNA from the cells of each test group using TRIzol (Invitrogen, USA), cDNA was prepared by carrying out PCR (PTC-225 Peltier thermal cycler, MJ Research, USA). Then, the mRNA expression of IL-6, IL-8 and TNF-α was measured through real-time PCR (Roter Gene 6000 series, Corbett Research, Australia) using the cDNA as template and using commercially available IL-6, IL-8 and TNF-α primers. The expression level of the pro-inflammatory cytokines was compared relative to the non-treated group.

[2] = test system: ERK; test: UV-induced ERK phosphorylation in HaCaT cells (Western blot); assay type: cell-based, human; conditions: 1 μg/mL, UV (FIG. 2d)
Description: In order to identify the intracellular factors affecting COX-2 expression that are affected by homoisoflavanone, Western blotting was carried out in the same manner as in Example 2-1 except for treating with homoisoflavanone at 1 μg/mL, irradiating UV for 45 minutes and using rabbit anti-p-cytosolic phospholipase A2 (cPLA2) antibody, rabbit anti-cPLA2 antibody, rabbit anti-ERK antibody, rabbit anti-p-ERK antibody, rabbit anti-p38 antibody or rabbit anti-p-p38 antibody and using anti-rabbit IgG-HRP conjugation antibody (Zymed) as secondary antibody. Positive control groups were treated with 1 μM SB203580 (A.G. Scientific, Inc.) as p38 inhibitor or 10 μM PD98059 (A.G. Scientific, Inc.) as MEK 1 inhibitor instead of homoisoflavanone.

[3] = test system: T cells; test: Mixed lymphocyte reaction (MLR), T cell proliferation (3H-thymidine); assay type: cell-based, mouse; conditions: one-way MLR, BALB/C and C57B/C splenocytes, concentration-dependent (FIG. 9)
Description: Mixed lymphocyte reaction (MLR) was carried out in order to investigate the inhibitory effect of homoisoflavanone against T cell proliferation. When mouse immune cells of different MHC classes are cultured as mixed with each other, the T cells recognize those of different MHC class as antigens and thus proliferate. One-way MLR was performed as follows. Following excision of spleens from BALB/C and C57B/C mice, the cells were individualized and red blood cells were lysed. After irradiation of 25 Gy γ-rays to BALB/C splenocytes to inactivate the BALB/C T cells, the BALB/C and C57B/C splenocytes (5×10^5 and 2×10^5 cells each) were mixed in a U-bottom 96-well plate. After treating with homoisoflavanone, the cells were incubated for 56 hours in an incubator of 5% CO2 and 37° C. Then, after further adding ^3[H]-thymidine (0.5) to each well, the cells were further incubated for 16 hours. Thereafter, the cells of each well were collected on filter paper and then put in a vial. After adding a scintillation solution (2 mL), counts per minute (CPM) was measured using a β-counter.

[4] = test system: TNF-α; test: UV-induced TNF-α mRNA expression in HaCaT cells (real-time PCR); assay type: cell-based, human; conditions: 1 μg/mL, UV 100 J/m^2, compared to control group (FIG. 3)
Description: as §1, §2

[5] = test system: COX-2; test: COX-2 expression induced by UV in human keratinocytes (Western blot); assay type: cell-based; conditions: HaCaT cells, 1 μg/mL, UV 100 J/m^2, 16 hours, vs UV only (FIG. 2a)
Description: In order to investigate the effect of homoisoflavanone on COX-2 expression induced by UV in human keratinocytes, HaCaT cells (5×10^5 cells) were inoculated on a 60-mm culture dish and cultured for 24 hours in DMEM containing 10% FBS.
Then, the cells were starved by culturing for 24 hours in DMEM containing 1% FBS. Then, after treating with homoisoflavanone at 1 μg/mL for 1 hour, the cells were washed 3 times with PBS and irradiated with UV at 100 J/m^2 to induce COX-2 expression. Immediately after the UV radiation, the cells were washed again with PBS and further cultured for 16 hours in DMEM containing 1% FBS, while treating with homoisoflavanone at the same concentration.
Thereafter, Western blotting was performed as follows in order to measure the degree of COX-2 expression in the cultured cells. The cells of each group were lysed using RIPA buffer containing 2 mM EDTA, 137 mM NaCl, 20 mM Tris-HCl (pH, 8.0), 1 mM sodium vanadate, 10 mM NaF, 1 mM phenylmethanesulfonyl fluoride (PMSF), 1% Triton X-100, 10% glycerol and a protease inhibitor cocktail, and subjected to SDS-PAGE electrophoresis on 10% acrylamide gel to separate proteins, which were then transferred to a nylon membrane and separated using goat anti-COX-2 antibody (SantaCruz, USA) and anti-goat IgG-horse radish peroxidase (HRP) conjugation antibody (1:10000, Zymed) as secondary antibody. […]

[6] = test system: COX-2; test: COX-2 expression induced by PMA and A23187 in human mast cells (Western blot); assay type: cell-based; conditions: HMC-1, homoisoflavanone 2 μg/mL or celecoxib 60 μM, 50 nM PMA + 1 μM A23187, 21 hours (FIG. 7a)
Description: In order to investigate the effect of homoisoflavanone on COX-2 expression induced by phorbol 12-myristate 13-acetate and A23187 in human mast cells, 1×10^6 HMC-1 cells were inoculated on a 100-mm culture dish and cultured in IMDM containing 10% FBS for 48 hours.

[7] = test system: IL-8; test: UV-induced IL-8 mRNA expression in HaCaT cells (real-time PCR); assay type: cell-based, human; conditions: 1 μg/mL, UV 100 J/m^2, compared to control group (FIG. 3)
Description: as §1, §2

[8] = test system: NF-κB; test: UV-induced NF-κB nuclear translocation in HaCaT cells (immunocytochemical staining); assay type: cell-based, human; conditions: 1 μg/mL, UV 100 J/m^2, 4 hours (FIG. 2e)
Description: In order to investigate whether the transcription factor NF-κB is activated, human keratinocytes HaCaT cells were immunocytochemically stained as follows.
After inoculating the cells on a 14-mm culture slide, the cells were cultured in DMEM containing 10% FBS for 24 hour. Then, the cells were starved by culturing for 24 hours in DMEM containing 1% FBS. Then, after treating with homoisoflavanone at 1 μg/mL for 1 hour, the cells were washed 3 times with PBS and irradiated with UV at 100 J/m^2. Immediately after the UV radiation, the cells were washed again with PBS and further cultured for 4 hours in DMEM containing 1% FBS while treating with homoisoflavanone at the same concentration. Then, the cells were fixed with methanol for 5 minutes and then subjected to immunocytochemical staining.
The fixed cells were blocked with 10% normal goat serum and then washed 3 times with PBS. Then, after fluorescence staining NF-κB using rabbit anti-NF-κB antibody (SantaCruz, USA) and Alexa 488-conjugated anti-rabbit IgG secondary antibody (Invitrogen, USA), counter staining was carried out using Hoechst (Sigma, St. Louis, Mo.).

COc1ccc(CC2COc3cc(O)cc(O)c3C2=O)cc1O (centres unmarked) [homoisoflavanone]
expression of IL-6 (mRNA) induced by UV [1]: decreased expression | phosphorylation of ERK [2]: inhibited | concentrations at which proliferation of T cells was effectively inhibited [3]: ≥ 0.25 µg/mL | expression of TNF-α (mRNA) induced by UV [4]: decreased expression | COX-2 expression induced by UV [5]: decreased | inhibition of COX-2 expression [6]: 80% | expression of IL-8 (mRNA) induced by UV [7]: decreased expression | migration of NF-κB into the nucleus induced by UV radiation [8]: inhibits
